Laboratory results reported in patent publication US12161612B2, “Methods and compositions for reducing symptoms of Parkinson's disease” (NeuroDerm, Ltd., priority 2023, dated 2024).

Experiments:
[1] = ND0612-005a/ND0612-005b plasma carbidopa levels after subcutaneous carbidopa doses; assay type: in vivo, human; details: 60 mg/ml levodopa with 7.5, 6 or 4 mg/ml carbidopa over 24 hours, 17.9, 26.9, 33.6 mg/24 h carbidopa
Description: In a separate clinical trial (ND0612-005a and ND0612-005b, open label design studies), the plasma carbidopa levels were tested in view of the subcutaneous administration of several carbidopa doses. Three formulations, comprising 60 mg/ml levodopa and (a) 7.5 mg/ml; (b) 6 mg/ml; or 4 mg/ml of carbidopa, were administered to three groups of subjects over the course of 24 hours, providing a total of 17.9 mg/24 h carbidopa to each subject in the first group, 26.9 mg/24 h carbidopa to each subject in the second group and 33.6 mg/24 h carbidopa to each subject in the third group.

[2] = ND0612-001 dose proportionality, 24 hour continuous subcutaneous infusion; assay type: in vivo, human; details: healthy male subjects; LD (6% w/w)/CD (1.4% w/w) composition, 24 hour subcutaneous infusion at 80-240 μl/h
Description: Subjects were administered with a composition comprising LD (6% w/w)/CD (1.4% w/w) by way of a 24 hour continuous infusion at varying infusion rates: • Group 1:80 μl/h • Group 2:120 μl/h • Group 3:160 μl/h • Group 4:200 μl/h • Group 5:240 μl/h
Several PK parameters were derived for both LD and CD in the dose proportionality assessment, including AUC (hr*ng/ml), Cmax (ng/ml), C15 (ng/ml), and C24 (ng/mL).

carbidopa Cmax dose proportionality [1]	dose proportionality of PK parameters (AUC, Cmax, C15, C24) [2]	Compound
showed clear dose proportionality	demonstrated dose proportionality	C[C@@](Cc1ccc(O)c(O)c1)(NN)C(=O)O [CD, carbidopa]
	demonstrated dose proportionality	N[C@@H](Cc1ccc(O)c(O)c1)C(=O)O [LD, L-3,4-dihydroxyphenylalanine]
